Laboratory results: patent publication US20030157159A1, “Prevention and treatment of digestive tract infections” (priority 2002, published 2003)

Assays:
H. pylori strain #26695 = test: bactericidal effect of selected terpenes on H. pylori viability; format: cell-based, Helicobacter pylori; design: key: *NG = no growth; **TNTC = Too Numerous To Count; settings: 10^6 cfu, 24 hours
Procedure: Five terpenes (anethole, carvone, citral, geraniol and b-ionone) were used for this study. […] The H. pylori used was strain #26695 of […], this bacteria is a motile, cag A, vac A cytotoxin-positive gram negative bacteria which colonizes gnotobiotic piglets and indefinitely persists within the gastric microenvironment as a superficial infection of the gastric mucosa and mucus layer. 1) Stock solutions of each terpene with polysorbate-80 were prepared (1.8 ml terpene plus 0.2 ml polysorbate-80. […] 3) A total of 1.0×10^6 bacteria (30 ul) was added to 970 ul terpene dilutions (final volume of 1.0 ml) in loosely capped tubes and incubated for 24 hours at 37° C. with continuous mixing. […] Bacterial colony forming units (cfu) were determined visual (counting) inspection. Recovered bacteria were confirmed to be H. pylori by catalase and urease enzyme activities.

E. coli strain AW574 = test: single terpene or combination against E. coli growth (O.D.); format: cell-based; settings: single terpene 2 uMol; 24 hours; compared to the control treatment
Procedure: The objective of this example was to determine an optimum terpene mixture which could have a greater biocidal effect. E. coli strain AW574 was grown in tryptone broth to an exponential growth phase (O.D. between 0.4 and 1.0 at 590 nm). One tenth of this growth was inoculated to 10 ml of tryptone broth following by the addition of individual terpenes or as indicated on table 2; then incubated for 24 hours at 35-37° C. and the O.D. determined in each tube. The concentration of terpenes was 1 or 2 uMol. Each treatment was repeated in triplicate. The results are expressed as percentage bacterial growth as compared to the control treatment. It is observed that the combination of terpenes give better biocidal effect than single terpenes, with geraniol and carvone better than b-ionone.

[1] = tested on: E. coli strains AW574 or AW405; test: Lysis of E. coli by terpenes (B-galactosidase/ONPG assay); format: cell-based
From the text: Lysis of the cell membrane was monitored by the determination of galactosidase activity. B-galactosidase is a well-characterized cytosolic enzyme in bacteria. This enzyme is inducible in the presence of isopropyl-1-thiogalactosidase (IPTG) and assayed colorimetricaly with substrate o-nitro-phenyl-B-D-galactoside (ONPG). ONPG is cleaved to release o-nitrophenol with peak absorbance at 420 nm. Since intact E. coli is impermeable to both ONPG and the enzyme, the cells have to be lysed prior to enzymatic assay. Therefore the ability of terpenes to lyse E. coli can be measured with this enzymatic assay and compared to known lysing agents. The procedure used was as follows: E. coli strains AW574 or AW405 were cultured overnight in 10 ml tryptone broth with […] at 35° C. Cells were allowed to growth after an absorbance equal to 0.9 was reached. Cells were harvested, washed with phosphate buffer and resuspended to an absorbance equal to 0.5. One tenth of a ml of the bacteria culture was added to 0.9 ml of buffer, warmed to 30° C. and then 80 ul of terpenes (85% terpenes and 15% polysorbate-80), 80 ul water (background) or 40 ul chloroform plus 40 ul 1% SDS in water (positive control) were added. After the addition of the lysing agents the tubes were mixed for 10 seconds and 0.2 ml of ONPG (4 mg/ml water) was added, then incubated for 5 minutes. The enzyme activity was stopped with 0.5 ml of 1 M sodium carbonate. After being centrifuged for 3 minutes at 1,500×g, supernatant was transferred to cuvettes and read at 420 nm. The relative degree of lysis caused by terpenes was calculated as follows:
100×(OD terpenes−OD water)/(OD chloroform−OD water)

E. coli = settings: cited from earlier work
H pylori = settings: in vitro; cited from earlier work
Traveler's Diarrhea = settings: Ericsson, Charles (1998); cited from earlier work
[2] = final dilution 1:10 of stock (90% terpene plus 10% polysorbate-80)
[3] = final dilution 1:10000 of stock
[4] = final dilution 1:50000 of stock

CC=Cc1ccc(OC)cc1 [Anethole]
H. pylori growth (cfu recovered) (H. pylori strain #26695; [2]): NG | H. pylori growth (cfu recovered) (H. pylori strain #26695; final dilution 1:50 of stock): NG | H. pylori growth (cfu recovered) (H. pylori strain #26695; final dilution 1:100 of stock): NG | H. pylori growth (cfu recovered) (H. pylori strain #26695; final dilution 1:500 of stock): NG | H. pylori growth (cfu recovered) (H. pylori strain #26695; final dilution 1:1000 of stock): 10^3 cfu | H. pylori growth (cfu recovered) (H. pylori strain #26695; final dilution 1:5000 of stock): 10^3 cfu | H. pylori growth (cfu recovered) (H. pylori strain #26695; [3]): TNTC | H. pylori growth (cfu recovered) (H. pylori strain #26695; [4]): TNTC

C=C(C)C1CC=C(C)C(=O)C1 (stereo not shown) [Carvone]
H. pylori growth (cfu recovered) (H. pylori strain #26695; [2]): NG | H. pylori growth (cfu recovered) (H. pylori strain #26695; final dilution 1:50 of stock): NG | H. pylori growth (cfu recovered) (H. pylori strain #26695; final dilution 1:100 of stock): NG | H. pylori growth (cfu recovered) (H. pylori strain #26695; final dilution 1:500 of stock): NG | H. pylori growth (cfu recovered) (H. pylori strain #26695; final dilution 1:1000 of stock): NG | H. pylori growth (cfu recovered) (H. pylori strain #26695; final dilution 1:5000 of stock): 10^4 cfu | H. pylori growth (cfu recovered) (H. pylori strain #26695; [3]): TNTC | H. pylori growth (cfu recovered) (H. pylori strain #26695; [4]): TNTC | % growth (E. coli strain AW574): 63.00% | Relative lysis ([1]; 404 uM): 3.2% | Relative lysis ([1]; 4,040 uM): 22% | Relative lysis ([1]; 40,400 uM): 54%

CC(C)=CCCC(C)=CC=O [Citral]
concentration in growth media that reduced the concentration of E. coli (E. coli): more than 0.01% | concentration with bactericidal effect (E. coli; growth media): 0.08% | H. pylori growth (cfu recovered) (H. pylori strain #26695; [2]): NG | H. pylori growth (cfu recovered) (H. pylori strain #26695; final dilution 1:50 of stock): NG | H. pylori growth (cfu recovered) (H. pylori strain #26695; final dilution 1:100 of stock): NG | H. pylori growth (cfu recovered) (H. pylori strain #26695; final dilution 1:500 of stock): NG | H. pylori growth (cfu recovered) (H. pylori strain #26695; final dilution 1:1000 of stock): NG | H. pylori growth (cfu recovered) (H. pylori strain #26695; final dilution 1:5000 of stock): NG | H. pylori growth (cfu recovered) (H. pylori strain #26695; [3]): NG | H. pylori growth (cfu recovered) (H. pylori strain #26695; [4]): TNTC

CC(C)=CCC/C(C)=C/CO [Geraniol]
H. pylori growth (cfu recovered) (H. pylori strain #26695; [2]): NG | H. pylori growth (cfu recovered) (H. pylori strain #26695; final dilution 1:50 of stock): NG | H. pylori growth (cfu recovered) (H. pylori strain #26695; final dilution 1:100 of stock): NG | H. pylori growth (cfu recovered) (H. pylori strain #26695; final dilution 1:500 of stock): NG | H. pylori growth (cfu recovered) (H. pylori strain #26695; final dilution 1:1000 of stock): NG | H. pylori growth (cfu recovered) (H. pylori strain #26695; final dilution 1:5000 of stock): NG | H. pylori growth (cfu recovered) (H. pylori strain #26695; [3]): 10^2 cfu | H. pylori growth (cfu recovered) (H. pylori strain #26695; [4]): TNTC | % growth (E. coli strain AW574): 54.00% | Relative lysis ([1]; 3.63 uM): 2.4% | Relative lysis ([1]; 36.3 uM): 4% | Relative lysis ([1]; 363 uM): 34% | Relative lysis ([1]; 3,630 uM): 98% | Relative lysis ([1]; 36,300 uM): 96% | concentration that inhibited the growth of H pylori (H pylori): 2 mg/lt.

CC(=O)/C=C/C1=C(C)CCCC1(C)C [b-Ionone]
H. pylori growth (cfu recovered) (H. pylori strain #26695; [2]): NG | H. pylori growth (cfu recovered) (H. pylori strain #26695; final dilution 1:50 of stock): NG | H. pylori growth (cfu recovered) (H. pylori strain #26695; final dilution 1:100 of stock): NG | H. pylori growth (cfu recovered) (H. pylori strain #26695; final dilution 1:500 of stock): NG | H. pylori growth (cfu recovered) (H. pylori strain #26695; final dilution 1:1000 of stock): NG | H. pylori growth (cfu recovered) (H. pylori strain #26695; final dilution 1:5000 of stock): NG | H. pylori growth (cfu recovered) (H. pylori strain #26695; [3]): NG | H. pylori growth (cfu recovered) (H. pylori strain #26695; [4]): TNTC | % growth (E. coli strain AW574): 84.00% | Relative lysis ([1]; 0.0308 uM): 1.3% | Relative lysis ([1]; 0.308 uM): 4.78% | Relative lysis ([1]; 3.08 uM): 23% | Relative lysis ([1]; 30.8 uM): 44% | Relative lysis ([1]; 308 uM): 52%

Lactobacillus
Efficacy (Traveler's Diarrhea): Not proven

Polysorbate-80 [reference compound]
H. pylori growth (cfu recovered) (H. pylori strain #26695; [2]): NG* | H. pylori growth (cfu recovered) (H. pylori strain #26695; final dilution 1:50 of stock): NG | H. pylori growth (cfu recovered) (H. pylori strain #26695; final dilution 1:100 of stock): NG | H. pylori growth (cfu recovered) (H. pylori strain #26695; final dilution 1:500 of stock): 10^3 cfu | H. pylori growth (cfu recovered) (H. pylori strain #26695; final dilution 1:1000 of stock): 10^4 cfu | H. pylori growth (cfu recovered) (H. pylori strain #26695; final dilution 1:5000 of stock): TNTC** | H. pylori growth (cfu recovered) (H. pylori strain #26695; [3]): TNTC | H. pylori growth (cfu recovered) (H. pylori strain #26695; [4]): TNTC | Relative lysis ([1]; 80 ul Polysorbate-80): 3.2%

Trimethropim-sulfamethoxazole [reference compound]
Efficacy (Traveler's Diarrhea): 70-80% protective
